Results taken from US7662767B2, “Polynucleotide intercalator interceptors and inhibitors” (Materials Evolution and Development USA, Inc., priority 2000, dated 2010).
Several values for one entry are separate records, joined by “and”; a condition that tells them apart may be missing. Identical values can stand only once.

Legend:
[1] = Acridine orange self-association (AO-AO dimer), absorbance; format: binding
Procedure: (§1) Association constants were calculated using a modification of an equation described by Zaini et al. (1999) to determine equilibrium constants for weakly bound complexes by absorbance spectrophotometry. By definition K=Xd/(Xm* Xm), where K is the binding constant Kassoc, Xd is the concentration of the AO dimer and Xm is the concentration of the AO monomer. Conservation of mass gives Xt=Xm+2*Xd, where Xt is the total concentration of AO in solution. Rearranging the conservation of mass equation gives Xm=Xt−2*Xd, and substituting into the equation for Kassoc and rearranging gives Equation 4: Kassoc(Xt*Xt−4*Xt*Xd+4*Xd*Xd)−Xd=0 EQUATION 4:
(§2) Rearranging gives: Xd*Xd−(Xt+1/(4*.Kassoc)*Xd+Xt*Xt/4=0 EQUATION5:
(§3) Applying the quadratic formula (X=[−B±SQRT(B^2−4AC]/2A) to Equation 3-5 and taking a physically reasonable root gives Equation 3-6: Xd=[Xt+1/(4*K)−SQRT(Xt/(2*K)+1/[…])]/2 EQUATION 6:
Where SQRT ( ) indicates taking the square root of the content of the parentheses. The fluorescence values at λem 530 nm (F530) is a function of Xt and F530=Xd*ε, where “ε” is the fluorescence yield of the dimer. The equation was solved by non-linear least squares using Prism™ software and binding constants determined. […] Fluorescence values (fi) are reported as raw data normalized to scale and not adjusted by a dilution factor following aliquot additions. Absorbance data taken at 468 nm was also used to calculate the Kassoc for the AO-AO dimer using Equation 6.
In the example shown in FIG. 3-1A, absorbance was scanned between 400 nm and 550 nm over a range of AO concentrations from 2.5 μM to 20 μM in a 5 mM solution of HEPES buffer at pH 7.0. […] Note that the absorbance at 492 nm (A492) is indicative of the concentration of the AO monomer, whereas the absorbance at 468 nm (A468) is indicative of the concentration of the AO-AO dimer (Kapuscinski and Kimmel, 1993). […]
The absorbance was scanned between 410 nm and 540 nm over a range of AO concentrations from 10 μM-45 μM in a 5 mM solution of […] buffer at pH 7.0 in the presence of 150 mM of NaCl. […]

[2] = Acridine orange self-association (AO-AO dimer), spectrofluorometry λem 530 nm; format: binding; conditions: hydrochloride
Procedure: as §1, §2, §3
Where SQRT ( ) indicates taking the square root of the content of the parentheses. The fluorescence values at λem 530 nm (F530) is a function of Xt and F530=Xd*ε, where “ε” is the fluorescence yield of the dimer. The equation was solved by non-linear least squares using Prism™ software and binding constants determined. Concentrations of the reactants were adjusted for dilution whereas AO concentrations are reported without adjustment for dilution. Fluorescence values (fi) are reported as raw data normalized to scale and not adjusted by a dilution factor following aliquot additions. Absorbance data taken at 468 nm was also used to calculate the Kassoc for the AO-AO dimer using Equation 6.
The error bars shown standard deviation unless obscured by legend symbols (n=4). The results also indicate the effect of a physiological concentration of NaCl [150 mM] on the fluorescence of AO at both λem 530 nm (green) and λem 635 nm (red) over a range of AO concentrations from 0.5 μM to 10.0 μM. At an AO concentration of between 5-6 μM, the amplitude of green fluorescence at λem 530 nm increases abruptly. The red fluorescence (λem 635 nm) also increases abruptly between 5-6 μM. However, the magnitude of the increase at λem 635 nm is proportionally less than that found at λem 530 nm. As the concentration of AO increases from 5 μM to 6 μM, the mean fluorescence values were changed from 457±16 to 5,197 ±289 at λem 530 nm and from 174±4 to 1,371±41 at λem 635 nm (n=4). […] The example shown in FIG. 3-2B depicts the binding plot calculated at λem 530 nm for the molecular association of AO with itself in the absence of and in the presence of NaCl. The association constants (Kassoc) for AO derived from these two plots are 118,000±16,120 M^−1 (R^2=0.98) in the presence of NaCl [150 mM] and 37,410±4,758 M^−1(R^2=0.97) in the absence of NaCl. Error bars denote standard deviation unless hidden by legend symbols (n=4). The presence of 150 mM NaCl has no significant effect on the fluorescence intensity of AO at either λem 530 nm or λem 635 nm at AO concentrations of 6 μM and above.
Association constants were calculated for AO self-association by assuming the fluorescence values derived at λem 530 nm reflect the extent of dimer formation. Association constants (Kassoc) were calculated from the change in mean fluorescence values (delta fluorescence) at λem 530 nm (see FIG. 3-2B). At AO concentrations from 0.5 μM to 5 μM, Kassoc was determined to be 37,410±4,758 M^−1 (R^2=0.97) in the absence of NaCl and 118,000±16,120 M^−1 (R^2=0.98) in the presence of 150 mM NaCl (see FIG. 3-2B). For AO concentrations >5 μM, the association constants were determined to be 46,700±1,807 M^−1 (R^2=0.99) for AO alone and 41,820±3,671 M^−1 (R^2=0.99) for AO in the presence of NaCl. This indicates a significant AO concentration dependent difference in the association constant in the presence of 150 mM NaCl at low AO concentrations (<5 μM) but not a significant difference at AO concentrations above 5 μM.

[3] = system: chicken erythrocyte nuclear chromatin; experiment: Removal of acridine orange from stained chicken erythrocyte nuclear chromatin by xanthine rinse, fluorescence microscopy; conditions: slides stained with 10 mM AO; rinse with 50 mM for 10 minutes

Row | SMILES | K ± S.D. ([1]; Absorbance plus NaCl, AO [10-45 μM]) | K ± S.D. ([1]; Absorbance, AO [2.5-20 μM]) | K ± S.D. ([1]; Absorbance, AO [10-80 μM]) | K ± S.D. ([2]; Fluorescence plus NaCl 150 mM, AO [0.5-5.0 μM]) | K ± S.D. ([2]; Fluorescence plus NaCl 150 mM, AO [0.5-5.0 μM], listed as AO-AO) | K ± S.D. ([2]; Fluorescence plus NaCl, AO [6.0-10.0 μM]) | K ± S.D. ([2]; Fluorescence plus NaCl, AO [6.0-10.0 μM], listed as AO-AO) | K ± S.D. ([2]; Fluorescence, AO [0.5-5.0 μM], absence of NaCl) | K ± S.D. ([2]; Fluorescence, AO [0.5-5.0 μM], absence of NaCl, listed as AO-AO) | K ± S.D. ([2]; Fluorescence, AO [6.0-10.0 μM], absence of NaCl) | K ± S.D. ([2]; Fluorescence, AO [6.0-10.0 μM], absence of NaCl, listed as AO-AO) | fluorescence intensity after rinse [3]
1 | CN(C)c1ccc2cc3ccc(N(C)C)cc3nc2c1.Cl [AO, 3,6-bis[dimethylamino]acridine hydrochloride] | 47,510 ± 2,420 M^−1 | 46,840 ± 5,967 M^−1 | 49,530 ± 2,953 M^−1 | 118,000±16,120 M^−1 and 118,000 M^−1 | 118,000 ± 16,120 M^−1 | 41,820±3,671 M^−1 | 41,820 ± 3,671 M^−1 | 37,410±4,758 M^−1 and 37,410 M^−1 | 37,410 ± 4,758 M^−1 | 46,700±1,807 M^−1 | 46,700 ± 1,807 M^−1 | –
2 | Cn1c(=O)c2c(ncn2C)n(C)c1=O [1,3,7-trimethyl xanthine (caffeine), 1,3,7-trimethyl xanthine] | – | – | – | – | – | – | – | – | – | – | – | reduced the fluorescence intensity to background level
